# Experimental data: paper PMC8284453 (Antimicrobial Agents and Chemotherapy, 2021)
# Read-outs that look alike come from different tables or passages of the source.
# Experiments:
# [1] = tested on: Enterobacterales expressing class D oxacillinases (OXA-48/48-like); assay: organism not typed; format: cell-based, E. coli, K. pneumoniae
# [2] = tested on: isogenic strains of E. coli expressing Ambler class A, B, C, and D enzymes; assay: microbe, parasite or virus in culture; format: cell-based, Escherichia coli
# E. coli ESBL4 (CTX-M-15) [3] = assay: Broth microdilution MIC; format: cell-based; settings: modal value, 5 independent determinations
# [4] = tested on: E. cloacae ECL01 (TEM-72, ACT-1, P99AmpC); assay: Broth microdilution MIC; format: cell-based; settings: modal value, 5 independent determinations
# [5] = tested on: K. pneumoniae ATCC BAA-1705 (KPC-2); assay: Broth microdilution MIC; format: cell-based; settings: modal value, 5 independent determinations
# [6] = tested on: K. pneumoniae 752286 (OXA-48); assay: Broth microdilution MIC; format: cell-based; settings: modal value, 5 independent determinations
# [7] = tested on: E. cloacae ECL01 (TEM-72, ACT-1, P99AmpC); assay: 24-h time-kill assay; format: cell-based; settings: lowest concentration with ≥3-log10 CFU/ml reduction at 24 h
# Protocol: (§1) In vitro antibacterial time-kill assay. […] Time-kill assays were performed in 14 ml glass tubes or deep-well storage plates with a bacterial inoculum in CAMHB of 5 × 10^5 CFU/ml. The tubes/plates were incubated at 37°C with shaking at 200 rpm, and aliquots were drawn at six time points (0, 2, 4, 6, 8, and 24 h) to conduct 0.5 log10 dilutions in CAMHB in 96-well plates that were incubated overnight at 37°C and used to ascertain viable bacterial counts. The lowest quantifiable amount by this method is 2 log10 CFU/ml.
# E. coli ESBL4 (CTX-M-15) [8] = assay: 24-h time-kill assay; format: cell-based
# Protocol: as §1
# [9] = tested on: K. pneumoniae 752286 (OXA-48); assay: 24-h time-kill assay; format: cell-based; settings: lowest concentration with ≥3-log10 CFU/ml reduction at 24 h
# Protocol: as §1
# [10] = tested on: K. pneumoniae ATCC BAA-1705 (KPC-2); assay: 24-h time-kill assay; format: cell-based; settings: lowest concentration with ≥3-log10 CFU/ml reduction at 24 h
# Protocol: as §1
# [11] = tested on: Enterobacterales expressing class C cephalosporinases
structure (smiles),measurement,setting,value
C[C@@H](O)[C@H]1C(=O)N2C(C(=O)O)=C(S[C@H]3CC[S@@+]([O-])C3)S[C@H]12 [Sulopenem],MIC,[1]; K. pneumoniae DOV (OXA-48),2 µg/mL
same,MIC,[1]; K. pneumoniae KIRK (OXA-162),4 µg/mL
same,MIC,[1]; K. pneumoniae SI-C17 (OXA-48),16 µg/mL
same,Fold increase in MIC compared to vector control,[2],2
same,Fold increase in MIC compared to vector control,"[2]; E. coli expressing ACT-17 (class C), inhibitor fixed at 4 μg/ml",8
same,Fold increase in MIC compared to vector control,"[2]; E. coli expressing CMY-2 (class C), inhibitor fixed at 4 μg/ml",8
same,Fold increase in MIC compared to vector control,"[2]; E. coli expressing CMY-42 (class C), inhibitor fixed at 4 μg/ml",16
same,Fold increase in MIC compared to vector control,"[2]; E. coli expressing CTX-M-15 (class A), inhibitor fixed at 4 μg/ml",4
same,Fold increase in MIC compared to vector control,"[2]; E. coli expressing GES-5 (class A), inhibitor fixed at 4 μg/ml",256
same,Fold increase in MIC compared to vector control,"[2]; E. coli expressing KPC-2 (class A), inhibitor fixed at 4 μg/ml","2,048"
same,Fold increase in MIC compared to vector control,"[2]; E. coli expressing KPC-3 (class A), inhibitor fixed at 4 μg/ml","2,048"
same,Fold increase in MIC compared to vector control,"[2]; E. coli expressing KPC-3 D179Y (class A), inhibitor fixed at 4 μg/ml",16
same,Fold increase in MIC compared to vector control,"[2]; E. coli expressing NDM-1 (class B), inhibitor fixed at 4 μg/ml","1,024"
same,Fold increase in MIC compared to vector control,"[2]; E. coli expressing OXA-23 (class D), inhibitor fixed at 4 μg/ml",64
same,Fold increase in MIC compared to vector control,"[2]; E. coli expressing OXA-48 (class D), inhibitor fixed at 4 μg/ml",512
same,Fold increase in MIC compared to vector control,"[2]; E. coli expressing OXA-163 (class D), inhibitor fixed at 4 μg/ml",8
same,Fold increase in MIC compared to vector control,"[2]; E. coli expressing OXA-181 (class D), inhibitor fixed at 4 μg/ml","1,024"
same,Fold increase in MIC compared to vector control,"[2]; E. coli expressing P99/AmpC (class C), inhibitor fixed at 4 μg/ml",16
same,Fold increase in MIC compared to vector control,"[2]; E. coli expressing PER-1 (class A), inhibitor fixed at 4 μg/ml",8
same,Fold increase in MIC compared to vector control,"[2]; E. coli expressing SHV-5 (class A), inhibitor fixed at 4 μg/ml",8
same,Fold increase in MIC compared to vector control,"[2]; E. coli expressing SHV-12 (class A), inhibitor fixed at 4 μg/ml",4
same,Fold increase in MIC compared to vector control,"[2]; E. coli expressing VEB-9 (class A), inhibitor fixed at 4 μg/ml",4
same,MIC,E. coli ESBL4 (CTX-M-15) [3],0.12 µg/mL
same,MIC,[4],1 µg/mL
same,MIC,[5],32 µg/mL
same,MIC,[6],16 µg/mL
same,MBC,[7],1 µg/mL
same,outcome of 24-h time-kill assay,"E. coli ESBL4 (CTX-M-15) [8]; Fig. 3a, CTB 2 μg/ml with BLI at 4 μg/ml, CTB alone 8 μg/ml, amoxicillin 8/clavulanic acid 4 μg/ml, penems 2 μg/ml",bactericidal activity
same,MBC,E. coli ESBL4 (CTX-M-15) [8]; lowest concentration with ≥3-log10 CFU/ml reduction at 24 h,0.12 µg/mL
same,MBC,[9],>32 µg/mL
same,MBC,[10],32 µg/mL
same,MIC90,"[11]; 25 isolates, BLI fixed at 4 μg/ml, AMC 2:1",2 µg/mL
same,MIC,"[11]; C. freundii 134390 (AmpC, TEM-1)",0.06 µg/mL
same,MIC,"[11]; E. aerogenes 110099 (AmpC, SHV-12)",0.06 µg/mL
same,MIC,"[11]; E. aerogenes 111707 (AmpC, TEM-1)",0.12 µg/mL
same,MIC,"[11]; E. aerogenes 111902 (AmpC, TEM-1)",0.25 µg/mL
same,MIC,"[11]; E. coli 128 (AmpC, SHV-12, TEM-1, Toho-2)",0.03 µg/mL
same,MIC,"[11]; E. coli 3102 (AmpC, CTX-M-15, TEM-1)",0.03 µg/mL
same,MIC,"[11]; E. coli CH1 (AmpC, CTX-M-15, SHV-1, SHV-5, TEM-1)",0.06 µg/mL
same,MIC,"[11]; E. coli EC469 (AmpC, SHV-12, TEM-1)",0.03 µg/mL
same,MIC,"[11]; E. coli J53 (AmpC, SHV-5, TEM-1)",0.06 µg/mL
same,MIC,"[11]; E. coli SI-P026TC (CMY-2, TEM-1)",0.25 µg/mL
same,MIC,"[11]; E. coli SI-PO26 (AmpC, CMY-2, TEM-1)",0.12 µg/mL
same,MIC,"[11]; K. pneumoniae 129032 (MOX-2, SHV-12, TEM-1)",0.06 µg/mL
same,MIC,"[11]; K. pneumoniae 178279 (AmpC, SHV-12, TEM-1)",0.06 µg/mL
same,MIC,"[11]; K. pneumoniae 212027 (AmpC, FOX-5, TEM-1)",0.03 µg/mL
same,MIC,"[11]; K. pneumoniae 217917 (CMY-2, TEM-1)",0.06 µg/mL
same,MIC,"[11]; K. pneumoniae 301313 (AmpC, SHV-12, TEM-1)",0.12 µg/mL
same,MIC,"[11]; K. pneumoniae 398845 (CMY-2, SHV-12, TEM-1)",0.06 µg/mL
same,MIC,"[11]; K. pneumoniae SI-F100 (CMY-2, SHV-5, TEM-1)",0.03 µg/mL
same,MIC,"[11]; P. mirabilis SI-F014 (AmpC, TEM-72)",1 µg/mL
same,MIC,"[11]; S. marcescens 132253 (AmpC, CTX-M-3, OXA-1, SHV-12, TEM-1)",2 µg/mL
same,MIC,"[11]; S. marcescens 134434 (AmpC, SHV-12, TEM-1)",8 µg/mL
same,MIC,"[11]; S. marcescens 142397 (AmpC, SHV-7, TEM-1)",2 µg/mL
same,MIC,"[11]; S. marcescens 156212 (AmpC, SHV-12, TEM-1)",1 µg/mL
same,MIC,"[11]; S. marcescens 192478 (AmpC, SHV-12, TEM-1)",0.25 µg/mL
same,MIC,"[11]; S. marcescens 218068 (AmpC, SHV-7, TEM-1)",4 µg/mL
